Measurements from patent US9539298B2, “Lissencephaly therapeutic agent” (OSAKA CITY UNIVERSITY, priority 2010, dated 2017).

Columns and labels:
[1] = target: T1, μ-calpain (derived from human red blood cells) (Homo sapiens, UniProt P07384); assay: Measurement of inhibitory activity against μ-calpain; assay type: biochemical; details: casein substrate, 30° C., 60 minutes; read-out: enzyme inhibitory activities (μM) μ-calpain
T1 construct: derived from human red blood cells; purchased Cosmo Bio Co., Ltd; host or cells: human red blood cells (tissue-purified)
T1 sequence (P07384 1-714): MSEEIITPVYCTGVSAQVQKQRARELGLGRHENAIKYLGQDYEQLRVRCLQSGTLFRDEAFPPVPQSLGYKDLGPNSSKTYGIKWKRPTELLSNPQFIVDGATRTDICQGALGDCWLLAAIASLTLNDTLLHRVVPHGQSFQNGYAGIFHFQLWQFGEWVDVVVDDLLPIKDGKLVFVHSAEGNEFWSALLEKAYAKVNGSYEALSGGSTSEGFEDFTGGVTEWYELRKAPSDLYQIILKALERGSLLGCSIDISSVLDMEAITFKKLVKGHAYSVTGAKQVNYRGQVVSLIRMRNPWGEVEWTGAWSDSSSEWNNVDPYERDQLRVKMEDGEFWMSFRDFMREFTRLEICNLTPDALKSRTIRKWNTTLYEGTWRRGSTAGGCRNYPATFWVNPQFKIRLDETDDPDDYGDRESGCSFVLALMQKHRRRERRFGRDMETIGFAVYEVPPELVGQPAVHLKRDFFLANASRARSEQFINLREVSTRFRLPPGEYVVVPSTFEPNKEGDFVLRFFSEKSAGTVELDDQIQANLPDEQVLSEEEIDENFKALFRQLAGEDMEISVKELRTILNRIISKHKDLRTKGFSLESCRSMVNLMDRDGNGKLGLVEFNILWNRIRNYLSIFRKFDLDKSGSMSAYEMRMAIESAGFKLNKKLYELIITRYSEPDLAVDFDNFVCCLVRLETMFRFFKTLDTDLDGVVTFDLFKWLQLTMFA
T1 sequence (P04632 1-268 partner): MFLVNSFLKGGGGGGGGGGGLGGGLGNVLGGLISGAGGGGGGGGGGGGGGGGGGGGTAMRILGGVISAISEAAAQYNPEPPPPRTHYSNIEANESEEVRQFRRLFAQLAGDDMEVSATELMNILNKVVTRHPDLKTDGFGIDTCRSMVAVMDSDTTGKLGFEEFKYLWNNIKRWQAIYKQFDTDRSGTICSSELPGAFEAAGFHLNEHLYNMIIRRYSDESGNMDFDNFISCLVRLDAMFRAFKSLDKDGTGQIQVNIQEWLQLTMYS
Method: (§1) The inhibitory activity against μ-calpain and m-calpain was assayed according to a published method (Anal. Biochem. 1993, vol. 208, p. 387-392). More specifically, 200 μL of a reaction solution containing 0.5 mg/mL casein, 50 mM Tris-HCl buffer (pH 7.4), 20 mM dithiothreitol and 1.0 nmol μ-calpain (derived from human red blood cells, Cosmo Bio Co., Ltd.) or m-calpain (derived from porcine kidney, Cosmo Bio Co., Ltd.) was added to individual 2.5 μL portions of DMSO solution containing a varying concentration of a test sample in a 96-well plate. Then, 50 μL of 20 mM aqueous calcium chloride was added thereto, and reaction was performed at 30° C. for 60 minutes. 100 μL of the reaction solution was transferred to another 96-well plate, and purified water (50 μL) and 50% aqueous solution (100 μL) of Protein Assay Dye Reagent (available from Bio-Rad Laboratories, Inc.; catalogue No. 500-600) were added thereto. The reaction mixture was allowed to stand at room temperature for 15 minutes, and its absorbance was measured at 595 nm. The absorbance of a reaction mixture prepared in the same manner as mentioned above, except that a DMSO solution containing no sample was used as a control value; and the absorbance of a reaction mixture prepared in the same manner as mentioned above, except that a 1 mM aqueous EDTA solution (50 μL) was used in place of 20 mM aqueous calcium chloride, was used as a blank value. […] Inhibition rate (%){1−(measured value−blank test value)/(control value−blank test value)}×100
The concentrations (IC50) are shown in Table 1 as enzyme (calpain) inhibitory activities (μM).

[2] = target: m-calpain (derived from porcine kidney) (Sus scrofa, UniProt I3LQD3); assay: Measurement of inhibitory activity against m-calpain; assay type: biochemical; details: casein substrate, 30° C., 60 minutes; read-out: enzyme inhibitory activities (μM) m-calpain
Method: as §1, with “More” for “The inhibitory activity against μ-calpain and m-calpain was assayed according to a published method (Anal. Biochem. 1993, vol. 208, p. 387-392). More”, “The reaction mixture was allowed to stand at room temperature for 15 minutes, and its absorbance was measured at 595 nm.” left out

[3] = test system: nerve cells from cerebellums of FVB mice; assay: Analysis of toxicity of calpain inhibitors on cultured cerebellar nerve cells; assay type: cell-based, mouse; details: 100 μM, 16 hours, FIG. 24
Method: The cerebellums were removed from 4- to 5-day-old FVB mice (15 mice). In a Ca^2+-free Hank's Balanced Salt Solution (CF-HBSS; Ca^2+, Mg^2+-free Hank's Balanced Salt Solution (CMF-HBBS, Sigma) containing 5 mM magnesium chloride (MgCl2, Wako) and 4 mg/mL glucose (Wako)), the meninges were removed and cut into pieces. After the cerebellum fragments were washed with CF-HBSS, the fragments were allowed to stand for 20 minutes at 37° C. in CF-HBSS containing 0.025% trypsin (Invitrogen) and 6.25 μg/mL deoxyribonuclease (DNase, Sigma), and then centrifuged. The resulting tissues were washed with 10% HS/BME (DNase Medium; obtained by adding 5 mM MgCl2 and 25 μg/mL DNase to Basal Medium Eagle (BME, Invitrogen) containing 10% Horse Serum (HS, Invitrogen)) and centrifuged. DNase medium was added to the cells, and the cells were transferred to a 24-well plate (Nunc). The cells were kept still for 30 minutes at 37′C under an atmospheric environment of 5% CO2, thereby suspending the cells. The cell suspension was isolated, and then washed with 10% HS/BME. The suspension was transferred again to a 24-well plate to be cultured for 16 hours at 37° C. under an atmospheric environment of 5% CO2. The cells were collected to BME containing 1% Bovine Serum Albumin (BSA, Sigma) and 0.5% N2 supplement (Invitrogen), and the cell suspension was seeded on a 35 mm glass base dish (Iwaki) coated beforehand with poly-L-lysine (Sigma) and laminin (Sigma) in an amount of […]. The cells were cultured for 8 hours at 37° C. under an atmospheric environment of 5% CO2. The cultured nerve cells were used as test nerve cells.
A culture solution (10% HS/BME) containing SNJ-1945, E64d, or ALLN was prepared in the following manner. SNJ-1945 dissolved in dimethyl sulfoxide (Sigma, D-5879) was mixed with a culture solution so that the final concentration became 200 μM, and was kept still for an hour at 37° C., thereby completely dissolving SNJ-1945 in the culture medium. ALLN and E64d were also dissolved in culture media in the same manner, except that ALLN and E64d were added to the culture media to final concentrations of 50 μM and 100 μM, respectively. The culture media in which the components were dissolved were added to the test nerve cells prepared above in an amount of 2 ml/well, and the cells were cultured for 16 hours. As a control, the same culture was conducted using a culture medium containing the same amount of dimethyl sulfoxide (Sigma, D-5879). After culture, the cells were observed using an inverted microscope (TCS FP5S, Leica). A 20× objective lens was used. Images were taken using dedicated software (LAS AF, Leica) under the condition of 512×512 pixels.

m-calpain (derived from porcine kidney), sequence (I3LQD3 entry or part of it): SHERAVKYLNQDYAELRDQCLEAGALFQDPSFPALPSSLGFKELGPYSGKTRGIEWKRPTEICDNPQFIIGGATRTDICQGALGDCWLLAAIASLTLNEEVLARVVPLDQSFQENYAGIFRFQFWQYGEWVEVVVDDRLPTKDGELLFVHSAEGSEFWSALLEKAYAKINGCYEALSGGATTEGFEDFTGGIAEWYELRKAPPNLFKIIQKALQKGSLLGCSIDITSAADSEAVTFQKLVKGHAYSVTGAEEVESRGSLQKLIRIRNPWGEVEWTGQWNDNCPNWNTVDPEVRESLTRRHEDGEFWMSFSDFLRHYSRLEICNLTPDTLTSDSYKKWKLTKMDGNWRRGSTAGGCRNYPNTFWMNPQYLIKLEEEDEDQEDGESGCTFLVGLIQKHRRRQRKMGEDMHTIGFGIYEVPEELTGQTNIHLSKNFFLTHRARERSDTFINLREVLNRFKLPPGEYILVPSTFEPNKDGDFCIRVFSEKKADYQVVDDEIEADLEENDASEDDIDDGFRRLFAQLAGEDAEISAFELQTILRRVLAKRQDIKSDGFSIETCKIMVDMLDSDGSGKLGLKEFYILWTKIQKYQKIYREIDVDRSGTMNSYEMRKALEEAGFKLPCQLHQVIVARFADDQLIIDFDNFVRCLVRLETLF
m-calpain (derived from porcine kidney), sequence (P04574 whole entry, further chain): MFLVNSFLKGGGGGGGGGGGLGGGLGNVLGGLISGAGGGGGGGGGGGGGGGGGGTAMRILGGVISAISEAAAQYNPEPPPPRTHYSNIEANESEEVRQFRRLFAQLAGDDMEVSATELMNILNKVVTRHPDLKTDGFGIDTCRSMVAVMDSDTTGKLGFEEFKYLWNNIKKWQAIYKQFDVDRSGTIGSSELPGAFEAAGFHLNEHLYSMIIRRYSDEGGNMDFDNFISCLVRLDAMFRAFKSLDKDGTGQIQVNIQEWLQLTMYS

| SMILES | melting point [°C] | IC50 [1] [µM] | IC50 [2] [µM] | neurite elongation and cell migration (cytotoxicity) [3] |
| --- | --- | --- | --- | --- |
| COCCOCCOCCOCCOCCOC(=O)N[C@@H](CC(C)C)C(=O)N[C@@H](Cc1ccccc1)C(=O)C(=O)NC1CC1 [compound 20, ((1S)-1-((((1S)-1-Benzyl-2,3-dioxo-3-(cyclopropylamino)propyl)amino)carbonyl)-3-methylbutyl)carbamic acid 14-methoxy-3,6,9,12-tetraoxatetradecanyl ester] | 98.5 to 99.9 | 0.42 | 0.19 |  |
| COCCOCCOCCOC(=O)N[C@@H](CC(C)C)C(=O)N[C@@H](Cc1ccccc1)C(=O)C(=O)NC1CC1 [compound 18, ((1S)-1-((((1S)-1-Benzyl-2,3-dioxo-3-(cyclopropylamino)propyl)amino)carbonyl)-3-methylbutyl)carbamic acid 8-methoxy-3,6-dioxaoctyl ester] |  | 0.19 |  |  |
| CCOC(=O)[C@H]1O[C@@H]1C(=O)N[C@@H](CC(C)C)C(=O)NCCC(C)C [E64d, reference compound] |  |  |  | the cells were aggregated in the center, many cells were incapable of neurite elongation, little migration was observed compared with the control |
| COCCOCCOCCOCCOC(=O)N[C@@H](CC(C)C)C(=O)N[C@@H](Cc1ccccc1)C(=O)C(=O)NC1CC1 [compound 19, ((1S)-1-((((1S)-1-Benzyl-2,3-dioxo-3-(cyclopropylamino)propyl)amino)carbonyl)-3-methylbutyl)carbamic acid 11-methoxy-3,6,9-trioxaundecanyl ester] | 97.5 to 98.5 | 0.22 | 0.17 |  |
| COCCOC(=O)N[C@@H](CC(C)C)C(=O)N[C@@H](Cc1ccccc1)C(=O)C(=O)NC1CC1 [compound 4, ((1S)-1-((((1S)-1-Benzyl-2,3-dioxo-3-(cyclopropylamino)propyl)amino)carbonyl)-3-methylbutyl)carbamic acid 2-methoxyethyl ester] | 112.4 to 113.5 | 0.11 |  |  |

Continued, in another order:

| melting point [°C] | SMILES | IC50 [1] [µM] | IC50 [2] [µM] | neurite elongation and cell migration (cytotoxicity) [3] |
| --- | --- | --- | --- | --- |
| 141.9 to 143.5 | COCCOC(=O)N[C@@H](CC(C)C)C(=O)N[C@@H](Cc1ccccc1)C(=O)C(=O)NC1Cc2ccccc2C1 [compound 11, ((1S)-1-((((1S)-1-Benzyl-2,3-dioxo-3-(2-indanylamino)propyl)amino)carbonyl)-3-methylbutyl)carbamic acid 2-methoxyethyl ester] |  |  |  |
| 115.8 to 116.2 | CC(C)C[C@H](NC(=O)O[C@H]1CCOC1)C(=O)N[C@@H](CCc1ccccc1)C(=O)C(=O)NC1CC1 [compound 16] |  |  |  |
| 111.9 to 114.5 | CCNC(=O)C(=O)[C@H](CCc1ccccc1)NC(=O)[C@H](CC(C)C)NC(=O)O[C@H]1CCOC1 [compound 14, ((1S)-1-((((1S)-2,3-Dioxo-3-ethylamino-1-(phenylethyl)propyl)amino)carbonyl)-3-methylbutyl)carbamic acid (3S)-tetrahydrofuran-3-yl ester] |  |  |  |
| 99.7 to 100.5 | COCCOC(=O)N[C@@H](CC(C)C)C(=O)N[C@@H](CC(C)C)C(=O)C(=O)NCCOc1ccccc1 [compound 21, ((1S)-1-((((1S)-2,3-Dioxo-1-(2-methylpropyl)-3-(2-phenoxyethyl)aminopropyl)amino)carbonyl)-3-methylbutyl)carbamic acid 2-methoxyethyl ester] |  |  |  |
| 169.2 to 170.5 | CC(C)C[C@H](NC(=O)O[C@H]1CCOC1)C(=O)N[C@@H](Cc1ccccc1)C(=O)C(=O)NC1CC1 [compound 5, ((1S)-1-((((1S)-1-Benzyl-3-(cyclopropylamino)-2,3-dioxopropyl)amino)carbonyl)-3-methylbutyl)carbamic acid (3S)-tetrahydrofuran-3-yl ester] |  |  |  |
| 140 to 141.8 | CCNC(=O)C(=O)[C@H](Cc1ccccc1)NC(=O)[C@H](CC(C)C)NC(=O)OC1CCOCC1 [compound 3, ((1S)-1-((((1S)-1-Benzyl-2,3-dioxo-3-(ethylamino)propyl)amino)carbonyl)-3-methylbutyl)carbamic acid tetrahydro-4H-pyran-4-yl ester] |  |  |  |
